From patent US20070264241A1, “Compounds for Enhanced Cancer Therapy” (priority 2004, published 2007)
Entries after “also recorded” stand apart in the source; their conditions may differ.

How the values were obtained:
[1] = tested on: hGBM-1, hGBM-5 and hGBM-14 glioblastoma cultures; assay: MTT assay of cell viability and proliferation in primary glioblastoma cultures; assay type: cell-based, human
Protocol: Proliferation of cultured glioma cells was assessed by 3-(4,5-dimethylthiazol-2-yl)-2,5-diphenyltetrazolium bromide (MTT, Sigma) assay. MTT tetrazolium salt was dissolved in serum-free culture medium (0.5 mg/ml), added to the cells (150 μl/well) and incubated for 30 min at 37° C. Formazan dye, formed by viable cells, was solubilized in 300 μl of isopropanol. Aliquots (100 μl) of the solutions were transferred to 96-well microplates. The absorbance at 570 nm (with reference at 650 nm) was measured using a microtiter plate spectrophotometer (Anthos HT III). The results were expressed as percentage of viablecells compared to the control sample of untreated cells (100%).

[2] = tested on: GFAP in hGBM-1, hGBM-5 and hGBM-14 cells; assay: GFAP expression by immunocytochemistry and Western blot in primary glioblastoma cultures; assay type: cell-based, human
Protocol: (§1) Tumour cells cultured on laminin/poly-ornithine coated glass chamber slides were washed in phosphate buffered saline (PBS) and fixed in 4% paraformaldehyde in phosphate buffer for 10 minutes. Cells were washed in PBS three times and incubated with primary antibodies diluted in buffer (0.3% TX-100 (Sigma), albumin fraction V (Sigma), phosphate buffer pH 7.0) over night at 4° C. Secondary antibodies conjugated with FITC or Cy3 (Jackson lmmunoresearch Laboratories) were applied for one hour at room temperature, followed by rinsing with PBS. Antibodies bound were visualized with epifluorescence microscopy using a Leica DMRB microscope, and photographs were taken using a Nikon F50 camera. The following antibodies were used at specified dilutions: monoclonal anti GFAP, 1:500 (DAKO), monodonal anti Cx43 (1:1000, Transduction Laboratories), and FITC (1:80)-conjugated secondary antibodies (Jackson lmmunoresearch Laboratories). Primary glioblastoma cells were grown to 75% confluency and cultured for 48 hours in the presence or absence of 4-PB (2, 5 and 10 mM) and processed as previously described (Asklund et al, Exp cell Res, 2003, 284:183-193). Briefly, cell extracts, containing equal amount of protein (30 μg/lane for Cx43 detection and 60 μg/lane for GFAP detection) were loaded on 10% polyacrylamide gels, separated by SDS-PAGE, and electro-transferred onto nitrocellulose membranes. A rabbit polyclonal antibody to Cx43 diluted 1:8000 (Sigma) or a mouse monoclonal antibody to GFAP diluted 1:1000 (Pharmingen) were applied overnight at 40° C. The detection step was performed with the enhanced chemiluminescence (ECL) detection kit (Amersham). The membranes were exposed to Hyperfilm-ECL (Amersham) for 1-5 min. For quantification, films were scanned and analysed with Image Gauge (version 3.12, Fuji Photo Film Corp.). Data analysis was performed using the program Sigma Plot for Windows (version 6, Jandel Corp.). All results are expressed as means ± SE for the indicated number of experiments (FIG. 6).

[3] = tested on: gap junction communication in primary glioblastoma cells (hGBM-1); assay: Fluorescent dye (calcein/Dil) transfer between primary glioblastoma cells; assay type: cell-based, human; details: recipient cells 5 mM 4-PB for 48 hours prior to dye transfer
Protocol: Primary glioblastoma cells were cultured on 35 mm petri dishes and in vitro labelled with 5 μM calcein-AM (acetomethylic ester) and 10 μM Dil (Molecular Probes) diluted in supplemented serum free medium DMEM/F12 and incubated for 30 min at 37° C. The cells were washed once with the same medium, trypsinized and suspended in the culture medium induding 10% FBS. The cells were pelleted by centrifugation at 1600 rpm for 1 minute and resuspended in fresh culture medium. The procedure was repeated twice. Following the second resuspension, the labelled cells were plated on top of unlabelled cells of the same origin. These cells were either pretreated with 4-PB at a concentration of 5 mM, or non-treated for serving as a control. The labeled cells were then allowed to settle for 1 hour, followed by analyses using epifluorescence detection microscopy every 30 minutes for up to 6 hours. GJC (gap-junction communication) were studied using an Olympus BX50WI microscope equipped with UV epifluorescence and red and green attenuating filters.

[4] = tested on: GFAP and connexin 43 in S6 cells; assay: Western blot of GFAP and connexin 43 in S6 glioma cells after 4-PB; assay type: cell-based, Rat; details: 2 mM 4-PB for 2 days
Protocol: Protein from S6 cells treated with 4-PB for 48 h was extracted and a Western blot analysis was performed. The intensity of the Cx43 specific signal was determined by imager and the activation of Cx43 was calculated. S6 cells not treated with 4-PB acted as reference.

[5] = tested on: Cx43 in hGBM-1, hGBM-5 and hGBM-14 cells; assay: Connexin 43 expression by immunocytochemistry and Western blot in primary glioblastoma cultures; assay type: cell-based, human
Protocol: as §1, with “Briefly, cell extracts, containing equal amount of protein (30 μg/lane for Cx43 detection and 60 μg/lane for GFAP detection) were loaded on 10% polyacrylamide gels, separated by SDS-PAGE, and electro-transferred onto nitrocellulose membranes. A rabbit polyclonal antibody to Cx43 diluted 1:8000 (Sigma) or a mouse monoclonal antibody to GFAP diluted 1:1000 (Pharmingen) were applied overnight at 40° C. The detection step was performed with the enhanced chemiluminescence (ECL) detection kit (Amersham). The membranes were exposed to Hyperfilm-ECL (Amersham) for 1-5 min.” left out, “Data analysis was performed using the program Sigma Plot for Windows (version 6, Jandel Corp.).” left out

Substance: 4-phenylbutyrate [4-PB]
- anti-proliferative effect by phase contrast microscopy ([1]; after 24 hours of treatment): Anti-proliferative effects were seen
- 4-PB concentration at which the culture shows significant sensitivity (MTT) ([1]; hGBM-1 culture): 5 mM
- 4-PB concentration at which the culture is significantly affected (MTT) ([1]; hGBM-5 culture): 10 mM
- 4-PB concentration at which the culture is significantly affected (MTT) ([1]; hGBM-14 culture): 10 mM
- phosphorylated isoform of GFAP (Western blot) ([2]; 4-PB 2, 5, 10 mM, 48 hours): remained stable
- GFAP immunostaining intensity (immunocytochemistry) ([2]; all three cultures, 5 mM 4-PB for 48 hours): more intense immunostaining; also recorded: increased
- non-phosphorylated isoform of GFAP (Western blot) ([2]; hGBM-5 and hGBM-14, 4-PB 2, 5, 10 mM, 48 hours): upregulated; also recorded: increase
- intercellular spread of calcein (gap junction dye transfer) [3]: markedly improved; also recorded: facilitated gap junction dependent calcein transfer substantially
- expression of GFAP [4]: increased expression
- expression of connexin 43 [4]: increased expression
- Cx43 immunoreactivity at the cell surface (immunocytochemistry) ([5]; 5 mM 4-PB for 48 hours): marked increase
- non-phosphorylated and phosphorylated isoforms of Cx43 (Western blot) ([5]; 4-PB 2-10 mM, 48 hours): increased quantitatively; also recorded: marked increase
